Measurements as given in article PMC3760172 (Bioorganic & medicinal chemistry, 2013).

Molecular target: rat nNOS (Rattus norvegicus, UniProt P29476)
Assay: NOS inhibition assay
Format: biochemical
Settings: compared with inhibitor 27

- decrease in potency (nNOS) relative to 27: 54 fold
Structure (SMILES): Cc1cc(N)nc(COc2cccc(NCCc3cccc(F)c3)c2)c1 [Compound 24]
